Data taken from patent US6943190B2, “Method of using pyruvate and/or its derivatives for the treatment of cytokine-mediated inflammatory conditions” (University of Pittsburgh-of the Commonwealth System of …, priority 2001, dated 2005).

Columns and labels:
NF-B = experiment: LPS-induced NF-kB activation in RAW264.7 cells (EMSA); format: cell-based, murine; conditions: EMSA at 15 minutes and 4 hours after LPS
Procedure: Cell Culture. BALB/c murine macrophage-like RAW 264.7 cells obtained from the American Type Culture Collection (ATCC Number TIB-71, ATCC, Rockville, Mass.) (61), were cultured in RPMI 1640 (Life Technologies, Grand Island, N.Y.) supplemented with 10% heat inactivated fetal bovine serum (Gemini, Calabasas, Calif.), 2 mM glutamine (Cat. # 25030-149, Gibco BRL, Rockville, Mass.) and antibiotic-antimycotic mix (Cat. # 15240-062, Gibco BRL, Rockville, Mass.) in a humidified incubator with 5% CO2. Cells were mechanically removed and resuspended in serum-free Opti-MEM I medium (Life Technology, Grand Island, N.Y.) to perform experiments at 75% confluence.
Nuclear extract preparation. The day before use, cells were plated at a density of 1×10^6 per well in 6 well tissue culture plates. After stimulation at indicated times, cells were removed from the incubator and place on ice immediately. Cells were washed once with 2 ml phosphate buffered saline (PBS) then harvested in 1 ml of PBS containing 2% FBS using rubber scrapper. […] The supernatant was transferred to a new tube, protein concentration was determined using a commercially available Bradford assay (Bio-Rad Protein Assay, Hercules, Calif.). […]

IL6 = experiment: Peak serum IL6 in endotoxemic mice (ELISA); format: in vivo, Balb/C mice; conditions: pretreatment, data not shown
Procedure: Endotoxin shock. Mice were injected with endotoxin (Escherichia coli lipopolysaccharide, LPS 0111:B4; Sigma Chemical Co, St. Louis, Mo.) that was dissolved in sterile pyrogen-free saline at stock concentrations of 10 mg/ml. LPS solutions were sonicated for 20 min immediately prior to use for each experiment. Mice received an LD75 dose of LPS (5 mg/kg, i.p.). Blood was collected at different times after LPS administration, allowed to clot for 2 h at room temperature, then centrifuged for 20 min at 1,500 g. Serum samples were stored at […] prior to analysis. Mortality was recorded for up to 3 weeks after injection to ensure that no additional late deaths occurred.
Cytokine measurements. TNF concentration in mouse serum and in conditioned media from RAW 264.7 cell cultures was measured by ELISA (minimum detectable concentration=10 pg/ml). […] Mouse serum IL-6 and IL-1β levels were measured using ELISA kits (R&D Systems, Inc., Minneapolis, Minn.). HMGB-1 was analyzed by western blot as previously described by Wang et al, 1999. […] Protein was electroblotting to Immun-blot PVDF membrane (Bio-rad, Hercules Calif.) and HMGB-1 was analyzed using polyclonal 241 antibody and secondary anti-rabbit horseradish peroxidase (Amersham, Pitscataway, N.J.). Standard curves were constructed using r-HMGB-1, and the intensity of the 30 kD band analyzed by densitometry. […]

CCOC(=O)C(C)=O [ethyl pyruvate]
LPS-induced activation of NF-B (NF-B): significantly prevented LPS-induced activation of NF-B signaling in a concentration dependent fashion | peak serum level of IL6 (IL6): attenuated
